Laboratory results from patent US20200017496A1 (priority 2017, published 2020).
≈ marks a conversion by molar mass, not a printed value.

Columns and labels:
[1] = Aqueous solubility by visual inspection (Method 12); details: water, thermodynamic from solid
[2] = in vitro; format: in vitro ADME; details: plasma
Experimental: (§1) Method 8: Hydrolysis Kinetics in Buffers or Plasma Samples at 37° C., 4 μg/ml (Table 9)
(§2) Test compounds were prepared in DMSO at 0.8 mg/ml (relative to the acid AF1). To obtain a concentration of 4 μg/ml, one microliter of test compounds or AF1 was dissolved in 199 μl of buffer or blank plasma. For test compounds, plasma samples and/or buffer samples were kept at 37° C. during 2 h, and 20 μL of mixture were collected at 0 minutes (before heating to 37° C.), 5 minutes, 10 minutes, 20 minutes, 30 minutes, 45 minutes, 60 minutes and 120 minutes. For AF1, 20 μl of plasma samples and/or buffer samples were collected at 0 minutes. All plasma samples were protein precipitated using 3-25 fold volume of acetonitrile, shaken and centrifuged for 20 minutes at 15 000×g, diluted with a varying volume of deionized water. All buffer samples were diluted with a varying volume of deionized water/acetonitrile. The formation of AF1 from test compounds was quantified using LC-MS/MS.

[3] = Hydrolysis kinetics in buffers at room temperature by 19F-NMR, 1 mg/ml (Method 9); format: physicochemical
Experimental: Method 9: Hydrolysis Kinetics in Buffers at Room Temperature by ^19F-NMR, 1 mg/ml (Table 9)
Samples were prepared by solubilizing the ester compound (1 mg) in 900 μL of D2O and 100 μL of adequate buffer (Citrate 100 mM pH 5, Phosphate 100 mM pH 6 and Phosphate 100 mM pH 7.4). After a short sonication to fasten solubilization, the hydrolysis curve of the esters was generated by measuring and comparing the ^19F-NMR signal integrations of both species (ester compound disappearing and the acid form AF1 appearing). T10 and T50, times for respectively 10% and 50% of ester hydrolysis, were determined by interpolation of the hydrolysis curves.

[4] = Hydrolysis kinetics in buffers at 37° C., 4 μg/ml (LC-MS, Method 8); format: physicochemical
Experimental: as §1, §2

COCC(C)(C)OC(=O)C(F)(F)ON1C(=O)N2C[C@H]1CC[C@H]2C(N)=O [Example 7, (2-methoxy-1,1-dimethyl-ethyl) 2-[[(2S,5R)-2-carbamoyl-7-oxo-1,6-diazabicyclo[3.2.1]octan-6-yl]oxy]-2,2-difluoro-acetate]
solubility [1]: 6000 µg/mL (≈ 16.4 mM) | half-life at 4 µg/ml ([2]; dog): 4 min | half-life at 4 µg/ml ([2]; human): 7 min | half-life at 4 µg/ml ([2]; mouse): < 1 min | half-life at 4 µg/ml ([2]; rat): < 1 min | Hydrolysis at 1 mg/ml at room Temperature (NMR) T10 (10% degradation time) ([3]; Citrate 10 mM pH 5.0): 210 min | Hydrolysis at 1 mg/ml at room Temperature (NMR) T50 (50% degradation time) ([3]; Citrate 10 mM pH 5.0): 27 h | Hydrolysis at 1 mg/ml at room Temperature (NMR) T10 (10% degradation time) ([3]; Phosphate 10 mM pH 6.0): 120 min | Hydrolysis at 1 mg/ml at room Temperature (NMR) T50 (50% degradation time) ([3]; Phosphate 10 mM pH 6.0): 20 h | Hydrolysis at 1 mg/ml at room Temperature (NMR) T10 (10% degradation time) ([3]; Phosphate 10 mM pH 7.4): 37 min | Hydrolysis at 1 mg/ml at room Temperature (NMR) T50 (50% degradation time) ([3]; Phosphate 10 mM pH 7.4): 3.2 h | Hydrolysis at 4 μg/ml at 37° C. (LC-MS) T50 (50% degradation time) ([4]; Citrate 10 mM pH 5.0): 109 min | Hydrolysis at 4 μg/ml at 37° C. (LC-MS) T50 (50% degradation time) ([4]; Phosphate 10 mM pH 7.4): 23 min

CCOC(=O)C(F)(F)ON1C(=O)N2C[C@H]1CC[C@H]2C(N)=O [AF1-Et]
solubility [1]: > 1000 µg/mL | Hydrolysis at 1 mg/ml at room Temperature (NMR) T10 (10% degradation time) ([3]; Citrate 10 mM pH 5.0): 9 min | Hydrolysis at 1 mg/ml at room Temperature (NMR) T50 (50% degradation time) ([3]; Citrate 10 mM pH 5.0): 1 h | Hydrolysis at 4 μg/ml at 37° C. (LC-MS) T50 (50% degradation time) ([4]; Citrate 10 mM pH 5.0): <1 min | Hydrolysis at 4 μg/ml at 37° C. (LC-MS) T50 (50% degradation time) ([4]; Phosphate 10 mM pH 6.0): <1 min | Hydrolysis at 4 μg/ml at 37° C. (LC-MS) T50 (50% degradation time) ([4]; Phosphate 10 mM pH 7.4): <1 min

COCC(COC)OC(=O)C(F)(F)ON1C(=O)N2C[C@H]1CC[C@H]2C(N)=O [Example 13, [2-methoxy-1-(methoxymethyl)ethyl]2-[[(2S,5R)-2-carbamoyl-7-oxo-1,6-diazabicyclo[3.2.1]octan-6-yl]oxy]-2,2-difluoro-acetate]
solubility [1]: > 1000 µg/mL | Hydrolysis at 1 mg/ml at room Temperature (NMR) T10 (10% degradation time) ([3]; Citrate 10 mM pH 5.0): 8 min | Hydrolysis at 1 mg/ml at room Temperature (NMR) T50 (50% degradation time) ([3]; Citrate 10 mM pH 5.0): 0.933 h | Hydrolysis at 4 μg/ml at 37° C. (LC-MS) T50 (50% degradation time) ([4]; Citrate 10 mM pH 5.0): <1 min | Hydrolysis at 4 μg/ml at 37° C. (LC-MS) T50 (50% degradation time) ([4]; Phosphate 10 mM pH 6.0): <1 min | Hydrolysis at 4 μg/ml at 37° C. (LC-MS) T50 (50% degradation time) ([4]; Phosphate 10 mM pH 7.4): <1 min

CC1(OC(=O)C(F)(F)ON2C(=O)N3C[C@H]2CC[C@H]3C(N)=O)CCOCC1 [Example 8, (4-methyltetrahydropyran-4-yl) 2-[[(2S,5R)-2-carbamoyl-7-oxo-1,6-diazabicyclo[3.2.1]octan-6-yl]oxy]-2,2-difluoro-acetate]
solubility [1]: 1000 µg/mL (≈ 2.65 mM) | half-life at 4 µg/ml ([2]; dog): 8 min | half-life at 4 µg/ml ([2]; human): 11 min | half-life at 4 µg/ml ([2]; mouse): < 1 min | half-life at 4 µg/ml ([2]; rat): < 1 min | Hydrolysis at 1 mg/ml at room Temperature (NMR) T10 (10% degradation time) ([3]; Citrate 10 mM pH 5.0): 402 min | Hydrolysis at 1 mg/ml at room Temperature (NMR) T50 (50% degradation time) ([3]; Citrate 10 mM pH 5.0): 43 h | Hydrolysis at 1 mg/ml at room Temperature (NMR) T10 (10% degradation time) ([3]; Phosphate 10 mM pH 6.0): 162 min | Hydrolysis at 1 mg/ml at room Temperature (NMR) T50 (50% degradation time) ([3]; Phosphate 10 mM pH 6.0): 21 h | Hydrolysis at 1 mg/ml at room Temperature (NMR) T10 (10% degradation time) ([3]; Phosphate 10 mM pH 7.4): 40 min | Hydrolysis at 1 mg/ml at room Temperature (NMR) T50 (50% degradation time) ([3]; Phosphate 10 mM pH 7.4): 4.5 h | Hydrolysis at 4 μg/ml at 37° C. (LC-MS) T50 (50% degradation time) ([4]; Citrate 10 mM pH 5.0): >120 min | Hydrolysis at 4 μg/ml at 37° C. (LC-MS) T50 (50% degradation time) ([4]; Phosphate 10 mM pH 7.4): 39 min

COCCCC(C)(C)OC(=O)C(F)(F)ON1C(=O)N2C[C@H]1CC[C@H]2C(N)=O [Example 14, (4-methoxy-1,1-dimethyl-butyl) 2-[[(2S,5R)-2-carbamoyl-7-oxo-1,6-diazabicyclo[3.2.1]octan-6-yl]oxy]-2,2-difluoro-acetate]
solubility [1]: 5100 µg/mL (≈ 13 mM) | Hydrolysis at 1 mg/ml at room Temperature (NMR) T10 (10% degradation time) ([3]; Citrate 10 mM pH 5.0): 5 min | Hydrolysis at 1 mg/ml at room Temperature (NMR) T50 (50% degradation time) ([3]; Citrate 10 mM pH 5.0): 0.45 h | Hydrolysis at 1 mg/ml at room Temperature (NMR) T10 (10% degradation time) ([3]; Phosphate 10 mM pH 6.0): <25 min | Hydrolysis at 1 mg/ml at room Temperature (NMR) T50 (50% degradation time) ([3]; Phosphate 10 mM pH 6.0): <2 h | Hydrolysis at 1 mg/ml at room Temperature (NMR) T10 (10% degradation time) ([3]; Phosphate 10 mM pH 7.4): 7 min | Hydrolysis at 1 mg/ml at room Temperature (NMR) T50 (50% degradation time) ([3]; Phosphate 10 mM pH 7.4): 0.567 h | Hydrolysis at 4 μg/ml at 37° C. (LC-MS) T50 (50% degradation time) ([4]; Citrate 10 mM pH 5.0): <5 min | Hydrolysis at 4 μg/ml at 37° C. (LC-MS) T50 (50% degradation time) ([4]; Phosphate 10 mM pH 6.0): <5 min | Hydrolysis at 4 μg/ml at 37° C. (LC-MS) T50 (50% degradation time) ([4]; Phosphate 10 mM pH 7.4): <5 min
